Reference: PMC8851515 (Proceedings of the National Academy of Sciences of the …, 2022)

Biological target: T1, hDHHC20 (Homo sapiens, UniProt Q5W0Z9)
T1 sequence (Q5W0Z9 1-365): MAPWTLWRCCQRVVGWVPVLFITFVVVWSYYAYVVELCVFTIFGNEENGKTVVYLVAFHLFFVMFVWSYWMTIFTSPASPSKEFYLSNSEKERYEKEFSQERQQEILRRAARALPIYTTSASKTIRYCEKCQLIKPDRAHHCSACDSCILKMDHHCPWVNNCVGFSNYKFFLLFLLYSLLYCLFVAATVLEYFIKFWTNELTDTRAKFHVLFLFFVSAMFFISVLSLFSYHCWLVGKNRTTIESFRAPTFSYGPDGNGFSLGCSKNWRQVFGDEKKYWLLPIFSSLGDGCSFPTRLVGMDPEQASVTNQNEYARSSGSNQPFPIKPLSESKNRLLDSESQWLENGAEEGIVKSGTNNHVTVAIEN
Assay: coupled-enzyme PAT activity inhibition assay
Assay type: biochemical

Work on `CCCCCCCCCCCCCCC(Br)C(=O)O` (stereo not shown) [2-bromopalmitic acid] yielded an IC50 of 4.5 µM.
